Data reported in patent US20100016240A1, “FACILITATING CELLS AND DIABETES AND METHODS RELATED THERETO” (priority 2008, published 2010).

What was measured:
[1] = system: p-preDC FC from NOD or NOR mice; test: Chemokine and cytokine production by p-preDC FC after CpG-ODN stimulation (LINCOplex multiplex immunoassay); type: cell-based, mouse
Description: (§1) FIG. 2. Expression of activation markers on FC. (A) Sorted CD8^+/TCR^− FC (100,000) from NOD or NOR BM were cultured with medium or CpG-ODN for 18 h and stained with anti-MHC Class II I-A^d, CD86 or CD80 FITC labeled mAb, or isotype controls. The data shown are representative of three experiments. (B) Level of expression of activation markers on FC with or without CpG-ODN stimulation. The results are percent of CD8^+/TCR^− FC total from 3 separate experiments. (C) The morphology of FC was examined using Wright-Giemsa staining under optical microscopy after CpG-ODN stimulation. (D) P-preDC FC were cultured with CpG-ODN or medium only. Culture cell-free supernatants were collected after 18 h and MIP-1α/CCL3, MCP-1/CCL2, RANTES/CCL5, IP-10, IL-6, GM-CSF, and TNF-α were measured by LINCO plex multiplex immunoassay.
(§2) FC were cultured alone or with 1 μM TLR-9 ligand CpG-ODN 1668 (TCCATGACGTTCCGATGCT) (SEQ ID NO:1) (GIBCO BRL Custom Primers) (13) for 18 h. Supernatants were assayed for cytokines by Linco Diagnostic (St Charles, Mo.) using LINCOplex™ Multiplex immunoassay and cells were stained with anti-CD80, anti-CD86, or anti-MHC class II I-A^d (39-10-8) FITC mAb, with appropriately matched isotype controls.
We also examined chemokine and cytokine production by NOD and NOR p-preDC FC after CpG-ODN stimulation. In the presence of CpG-ODN, p-preDC FC produced more MIP-1α/CCL3, RANTES/CCL5, IP-10, IL-6, and TNF-α, compared to the level of those in absence of stimulation (FIG. 2D).

[2] = system: CD8+/TCR- FC from NOD or NOR BM; test: Activation markers and morphology of sorted CD8+/TCR- FC cultured with CpG-ODN; type: cell-based, mouse
Description: as §1, §2
(§3) Wright-Giemsa staining was performed on cytospins of 100,000 FC after fixed in methanol. Slides were examined for dendritic morphology under optical microscopy.
We evaluated whether NOD FC resemble NOR FC in response to CpG-ODN stimulation.

p-preDC FC = settings: cited from earlier work
NOD mice = settings: cited from earlier work
PB p-preDC = settings: administration of FL into human volunteers; cited from earlier work
[3] = system: FC in peripheral blood of NOD mice; test: FL treatment of NOD donor mice: phenotype and morphology of FL-mobilized PB FC; type: in vivo, mouse
Description: (§4) FIG. 6. FL-mobilized PB FC facilitate HSC engraftment in allogeneic recipients. Recombinant human FL (expressed from CHO cells) (kindly provided by Amgen; Thousand Oaks, Calif.) was diluted in 0.1% mouse serum albumin (MSA; Sigma, St Louis, Mo.) at a concentration of 100 μg/ml. Donor NOD female mice were injected with 10 μg of FL once daily subcutaneously from day 0 to day 9. Control mice received saline injections. (A) Flow cytometric analysis of subpopulations in sorted FL-mobilized PB FC. (B) Sorted FL-PB FC were examined after Wright-Giemsa staining by optical microscopy. (C) Survival of recipients of HSC plus FL-mobilized PB FC in allogeneic model (NOD→B10). B10 recipients were conditioned with 950 cGy TBI and transplanted with […] from untreated NOD donors either alone or mixed with 30,000 purified FC from untreated NOD bone marrow, or from FL-mobilized PB FC from NOD mice. (D) and (E) Multilineage typing of representative B10 recipients of NOD HSC alone or recipients of NOD HSC plus FL-PB FC. Multilineage data are from PB 3 months after transplantation and analyzed based on the lymphoid and myeloid gate. Data shown are from one representative recipient. A total of 3 to 5 recipients were analyzed per group.
Sorted FC (purity was ≧95%) were incubated with Fc receptor block (anti-CD16/CD32) before staining with lineage-specific markers: anti-CD11 FITC, CD11b APC, CD14 FITC, NK1.1 FITC, DX5 FITC, B220 PerCP, Gr-1 APC and CD19 APC, as previously described (4). Sorted FC were analyzed for p-preDC FC as B220^+/CD11c^+/CD11b^− using Cell Quest Software (Becton Dickinson).
as §3
To test whether FL-treatment can restore the function of NOD FC, the phenotype and function of FL-PB FCs were evaluated. NOD mice were treated with FL for 10 days. FC were sorted from PB, and sorted FC were stained with B220, CD11c, CD19, NK1.1DX5, and CD11b mAbs.

[4] = system: HSC engraftment in B10 recipients; test: Facilitation of HSC engraftment by FL-mobilized PB FC in allogeneic recipients (NOD to B10); type: in vivo, mouse
Description: as §4
In the syngeneic model, recipients were conditioned with 950 cGy TBI from a Cesium source (Nordion, Ontario, ON, Canada) and transplanted with 500 HSC±30,000 FC populations by tail vein injection≧6 h after irradiation (14). In the allogeneic model, recipients conditioned with 950 cGy TBI were transplanted with 5,000 HSC±30,000 FL-PB FC (4).
Engraftment of donor cells was evaluated by PBL typing using 3-color flow cytometry, as previously described (15).
It was next evaluated whether FL-treatment can restore the facilitating function of NOD FC. […] To test function of FL-PB FC, HSC were sorted from BM of untreated NOD mice and FC from the PB of FL-treated NOD mice. Conditioned B10 recipients received 5,000 HSC plus 30,000 FL-PB FC. Control mice were transplanted with 5,000 HSC±30,000 FC from BM of untreated NOD mice. […] 13% and 20% of recipients of HSC alone (n=9) or HSC plus FC (n=8) from untreated NOD mice survived over 120 days, respectively (FIG. 6C).
Three-color flow cytometric analysis was performed.

[5] = in response to CpG-ODN stimulation
[6] = with CpG-ODN compared to absence of stimulation, 18 h supernatant
[7] = FL-PB FC versus untreated NOD BM FC
[8] = NOD mice, 10 μg FL once daily s.c. for 10 days, FC sorted from PB
[9] = treatment of NOD donors with FL

## CpG-ODN: TLR-9 ligand CpG-ODN 1668 (TCCATGACGTTCCGATGCT) (SEQ ID NO:1) (listed as DNA, chemistry not given here)
[1]; after CpG-ODN stimulation
  IL-6 amount, NOR p-preDC FC compared to NOD p-preDC FC: 5 ×
  MIP-1α/CCL3 amount, NOR p-preDC FC compared to NOD p-preDC FC: 2.1 ×
  RANTES/CCL5 amount, NOR p-preDC FC compared to NOD p-preDC FC: 3.5 ×
  TNF-α amount, NOR p-preDC FC compared to NOD p-preDC FC: 1.9 ×
[1]; [5]
  GM-CSF production by NOD p-preDC FC: do not
  GM-CSF production by NOR p-preDC FC: more efficiently
[1]; [6]
  IL-6 production by p-preDC FC: produced more
  IP-10 production by p-preDC FC: produced more
  MIP-1α/CCL3 production by p-preDC FC: produced more
  RANTES/CCL5 production by p-preDC FC: produced more
  TNF-α production by p-preDC FC: produced more
[2]; NOD BM FC, 1 μM CpG-ODN, 18 h
  CD80 expression on NOD FC: markedly decreased
  CD86 expression on NOD FC: up-regulated
[2]; NOD FC after CpG treatment, Wright-Giemsa
  Morphology of NOD FC: did not exhibit a mature morphology
[2]; NOR BM FC, 1 μM CpG-ODN, 18 h
  CD86 expression on NOR FC: up-regulated
[2]; NOR FC after CpG-ODN stimulation, compared to NOD FC, Wright-Giemsa
  Morphology / activation state of NOR FC: more activated state
p-preDC FC; in response to TLR-9 ligand (CpG-ODN) stimulation
  Interferon (IFN)-α and tumor necrosis factor (TNF)-α production by p-preDC FC: produce
p-preDC FC; p-preDC FC stimulated with CpG-ODN
  CD4+/CD25- T cells differentiation into CD4+/CD25+/FoxP3+ Treg cells in vitro: promote

B1: FL: Recombinant human FL (expressed from CHO cells), provided by Amgen; human FLT3 ligand sequence shown in SEQ ID NO:2 (protein)
chain: MTVLAPAWSPTTYLLLLLLLSSGLSGTQDCSFQHSPISSDFAVKIRELSDYLLQDYPVTVASNLQDEELCGGLWRLVLAQRWMERLKTVAGSKMQGLLERVNTEIHFVTKCAFQPPPSCLRFVQTNISRLLQETSEQLVALKPWITRQNFSRCLELQCQPDSSTLPPPWSPRPLEATAPTAPQPPLLLLLLLPVGLLLLAAAWCLHWQRTRRRTPRPGEQVPPVPSPQDLLLVEH
modifications: Homo sapien
NOD mice; FL treatment of NOD mice
  Diabetes progression: significant delay
  Production of defective mature myeloid DC, plasmacytoid DC in spleen and pancreatic lymph nodes: restored production
  Treg in pancreatic lymph nodes: significantly increased
NOD mice; prediabetic NOD mice treated with FL
  Insulitis and progression to diabetes: significantly decreased
PB p-preDC
  Number of PB p-preDC in humans: increase
[3]; [7]
  Percentage of CD19+ FC: remained at same levels
  Percentage of p-preDC FC: remained at same levels
[3]; [8]
  B220-/CD11c+/CD11b+ DC subpopulation in FL-PB FC: significant increase
  NK1.1+DX5+ subpopulation in FL-PB FC: significant increase
[3]; [9]
  Total number of FCs in peripheral blood: expanded
[3]; versus untreated NOD BM FC, Wright-Giemsa
  Activation state (dendritic morphology) of FL mobilized NOD PB FC: more activated state
[4]; B10 recipients (950 cGy TBI) of 5,000 untreated NOD HSC plus 30,000 PB FC from FL-treated NOD mice, n=8
  Recipients survived 120 days: 63%
[4]; HSC plus PB FC from FL-treated NOD mice in B10 recipients
  Engraftment of HSC: significantly enhanced
[4]; recipients of HSC plus FL-PB FC, followed >4 months, three-color flow cytometry
  Multilineage donor chimerism: showed donor chimerism for multilineages
[4]; [9]
  Facilitating function of NOD FC in vivo: restored
